Assays:
Format in all cases: in vivo
[1] = tested on: Diamond Back Moth (Plutella xylostella); test: Insecticidal effect on diamond back moth (Test Example 1); settings: 500 ppm; Chinese cabbage seedling with eggs immersed about 30 seconds; six days after the immersion; 25° C.
From the text: Insecticidal Effect on Diamond Back Moth (Plutella xylostella)
Adult diamond back moths were released and allowed to oviposit on a Chinese cabbage seedling. Two days after the release, the seedling having the eggs deposited thereon was immersed for about 30 seconds in a liquid chemical prepared by diluting a preparation containing each compound listed in Tables 1 to 4 as an active ingredient to adjust the concentration to 500 ppm. After air-dryness, it was allowed to stand in a room thermostatted at 25° C. Six days after the immersion, the hatched insects were counted. The mortality was calculated according to the following equation and the insecticidal effect was judged according to the criterion shown below. The test was carried out with triplicate groups of 10 insects.

[2] = tested on: Green Peach Aphid (Myzus Persicae); test: Insecticidal effect on green peach aphid (Test Example 4); settings: 500 ppm; stems and leaves of Chinese cabbage sprayed; six days after the spraying; greenhouse
From the text: Insecticidal Effect on Green Peach Aphid (Myzus Persicae)
A Chinese cabbage plant was planted in each of plastic pots with a diameter of 8 cm and a height of 8 cm, and green peach aphids were propagated on the plant. Then, the stems and leaves were sufficiently sprayed with a liquid chemical prepared by diluting a preparation containing each compound listed in Tables 1 to 4 as an active ingredient to adjust the concentration to 500 ppm. After air-drying, the pots were allowed to stand in a greenhouse. Six days after the spraying, green peach aphids parasitic on each Chinese cabbage plant were counted and the control efficacy was calculated, whereby the […] effect was judged according to the criterion shown below. Control efficacy (%)=100−[(T×Ca)/(Ta×C)]×100 • Ta: number of parasites before spraying in treated group, • T: number of parasites after spraying in treated group,
Ca: number of parasites before spraying in untreated group, • […]: number of parasites after spraying in untreated group. Criterion for Judgment: • A: control efficacy 100% • B: control efficacy 99 to 90% • C: control efficacy 89 to 80% • D: control efficacy 79 to 50%

[3] = tested on: powdery mildew fungus (Erysiphe graminis hordei); test: Controlling effect on barley powdery mildew (Test Example 5); settings: 200 ppm; potted barley at 1 leaf stage sprayed one day after inoculation; one week after the inoculation; 25° C.
Protocol: Controlling Effect on Barley Powdery Mildew Potted barley plants at the 1 leaf stage were inoculated with spores of powdery mildew fungus (Erysiphe graminis hordei) by sprinkling. After one day, they were sprayed with a liquid chemical prepared by diluting a preparation containing each compound listed in Table 1, Table 3 or Table 4 as an active ingredient to adjust the concentration to 200 ppm. Then, they were allowed to stand in a room thermostated at 25° C. One week after the inoculation, the lesion area of each leaf was measured and then compared with that on the untreated plot, whereby the controlling effect was judged according to the following criterion. Criterion for Judgment: • A: control efficacy 100 to 95% • B: control efficacy 94 to 80% • C: control efficacy 79 to 60% • D: control efficacy 59 to 0%

[4] = tested on: Two-Spotted Spider Mite (Tetranychus Urticae); test: Acaricidal effect on two-spotted spider mite (Test Example 3); settings: 500 ppm; kidney bean leaf disc with female adults sprayed; two days after the treatment; 25° C.
Protocol: Acaricidal Effect on Two-Spotted Spider Mite (Tetranychus Urticae)
A leaf disc with a diameter of 2 cm was made of a kidney bean leaf, placed on wet filter paper, inoculated with female adult two-spotted spider mites, and then uniformly sprayed, on a turntable, with 50 ml of a liquid chemical prepared by diluting a preparation containing each compound listed in Tables 1 to 4 as an active ingredient to adjust the concentration to 500 ppm. After the spraying, the leaf disc was allowed to stand in a room thermostated at 25° C. Two days after the treatment with the preparation, the dead insects were counted and the acaricidal effect was judged according to the criterion shown in Test Example 1. The test was carried out with two replications of 10 insects.

[5] = tested on: Smaller Tea Tortrix (Adxophyes sp.); test: Insecticidal effect on smaller tea tortrix (Test Example 2); settings: 500 ppm; tea leaves immersed about 30 seconds, inoculated with larvae; eight days after the inoculation; 25° C., humidity 70%
Protocol: Insecticidal Effect on Smaller Tea Tortrix (Adxophyes sp.)
Tea leaves were immersed for about 30 seconds in a liquid chemical prepared by diluting a preparation containing each compound listed in Tables 1 to 4 as an active ingredient to adjust the concentration to 500 ppm. After air-dryness, the tea leaves were placed in a plastic Petri dish with a diameter of 9 cm and inoculated with larvae of smaller tea tortrix, after which the dish was allowed to stand in a room thermostatted at 25° C. and having a humidity of 70%. Eight days after the inoculation, the dead and alive were counted. The mortality was calculated according to the following equation and the insecticidal effect was judged according to the criterion shown in Test Example 1. The test was carried out with triplicate groups of 10 insects.

Row | Structure (SMILES) | insecticidal effect (mortality rating) [1] | control efficacy rating [2] | acaricidal effect (mortality rating) [4] | also measured
1 | CCCc1cc(C(C(F)(F)F)C(F)(F)F)ccc1NC(=O)c1c(C)nn(C)c1Cl [1-4] | B or higher | B or higher |  | 
2 | CC(C)c1cc(C(F)(C(F)(F)F)C(F)(F)F)ccc1NC(=O)c1cn(C)nc1C(F)(F)F [1-5] |  |  |  | controlling effect (control efficacy rating, lesion area) [3]: B or higher
3 | CCC(C)c1cc(C(C(F)(F)F)C(F)(F)F)ccc1NC(=O)c1c(C)nn(C)c1Cl (centres unmarked) [1-8] |  | B or higher |  | 
4 | Cn1cc(C(=O)Nc2ccc(C(F)(C(F)(F)F)C(F)(F)F)c3c2CCCC3)c(C(F)(F)F)n1 [1-12] |  |  |  | controlling effect (control efficacy rating, lesion area) [3]: B or higher
5 | CCCC(C)c1cc(C(C(F)(F)F)C(F)(F)F)ccc1NC(=O)c1c(C)nn(C)c1Cl (centres unmarked) [1-22] |  |  | B or higher | 
6 | CCCC(C)c1cc(C(OC)(C(F)(F)F)C(F)(F)F)ccc1NC(=O)c1c(C)nn(C)c1Cl (centres unmarked) [1-23] |  |  | B or higher | controlling effect (control efficacy rating, lesion area) [3]: B or higher
7 | CCCC(C)c1cc(C(C(F)(F)F)C(F)(F)F)ccc1NC(=O)c1c(C)nn(C)c1C (centres unmarked) [1-25] |  | B or higher | B or higher | 
8 | CCCC(C)c1cc(C(OC)(C(F)(F)F)C(F)(F)F)ccc1NC(=O)c1c(C)nn(C)c1C (centres unmarked) [1-26] | B or higher |  | B or higher | 
9 | CC(C)CC(C)c1cc(C(C(F)(F)F)C(F)(F)F)ccc1NC(=O)c1cn(C)nc1C(F)(F)F (centres unmarked) [1-30] |  |  |  | controlling effect (control efficacy rating, lesion area) [3]: B or higher
10 | Cc1nn(C)cc1C(=O)Nc1ccc(C(C(F)(F)F)C(F)(F)F)cc1C(C)CC(C)C (centres unmarked) [1-34] |  |  | B or higher | 
11 | CCc1nn(C)cc1C(=O)Nc1ccc(C(C(F)(F)F)C(F)(F)F)cc1C(C)CC(C)C (centres unmarked) [1-35] | B or higher | B or higher |  | 
12 | CC(C)CC(C)c1cc(C(C(F)(F)F)C(F)(F)F)ccc1NC(=O)c1cn(C)nc1Br (centres unmarked) [1-39] |  |  | B or higher | 
13 | CC(C)CC(C)c1cc(C(C(F)(F)F)C(F)(F)F)ccc1NC(=O)c1cn(C)nc1I (centres unmarked) [1-40] |  |  | B or higher | 
14 | CSc1nn(C)cc1C(=O)Nc1ccc(C(C(F)(F)F)C(F)(F)F)cc1C(C)CC(C)C (centres unmarked) [1-41] | B or higher | B or higher |  | 
15 | Cc1c(C(=O)Nc2ccc(C(C(F)(F)F)C(F)(F)F)cc2C(C)CC(C)C)cnn1C (centres unmarked) [1-45] |  |  |  | controlling effect (control efficacy rating, lesion area) [3]: B or higher
16 | CC(C)CC(C)c1cc(C(C(F)(F)F)C(F)(F)F)ccc1NC(=O)c1cnn(C)c1[S+](C)[O-] (centres unmarked) [1-47] |  |  |  | controlling effect (control efficacy rating, lesion area) [3]: B or higher
17 | CCn1ncc(C(=O)Nc2ccc(C(C(F)(F)F)C(F)(F)F)cc2C(C)CC(C)C)c1Cl (centres unmarked) [1-51] |  |  | B or higher | 
18 | CCn1ncc(C(=O)Nc2ccc(C(C(F)(F)F)C(F)(F)F)cc2C(C)CC(C)C)c1Br (centres unmarked) [1-54] |  |  | B or higher | controlling effect (control efficacy rating, lesion area) [3]: B or higher
19 | Cc1c(C(=O)Nc2ccc(C(C(F)(F)F)C(F)(F)F)cc2C(C)CC(C)C)c(Cl)nn1C (centres unmarked) [1-60] |  |  |  | insecticidal effect (mortality rating) [5]: B or higher
20 | Cc1nn(C)c(F)c1C(=O)Nc1ccc(C(C(F)(F)F)C(F)(F)F)cc1C(C)CC(C)C (centres unmarked) [1-65] | B or higher | B or higher | B or higher | 

Row | Structure (SMILES) | insecticidal effect (mortality rating) [1] | control efficacy rating [2] | acaricidal effect (mortality rating) [4] | also measured
21 | CCn1nc(C)c(C(=O)Nc2ccc(C(C(F)(F)F)C(F)(F)F)cc2C(C)CC(C)C)c1Cl (centres unmarked) [1-78] |  |  | B or higher | 
22 | Cc1nn(C)c(Br)c1C(=O)Nc1ccc(C(C(F)(F)F)C(F)(F)F)cc1C(C)CC(C)C (centres unmarked) [1-81] |  | B or higher | B or higher | 
23 | COC(c1ccc(NC(=O)c2c(C)nn(C)c2Br)c(C(C)CC(C)C)c1)(C(F)(F)F)C(F)(F)F (centres unmarked) [1-82] | B or higher |  | B or higher | 
24 | CCn1nc(C)c(C(=O)Nc2ccc(C(O)(C(F)(F)F)C(F)(F)F)cc2C(C)CC(C)C)c1Br (centres unmarked) [1-83] |  |  |  | controlling effect (control efficacy rating, lesion area) [3]: B or higher
25 | Cc1nn(C)c(I)c1C(=O)Nc1ccc(C(C(F)(F)F)C(F)(F)F)cc1C(C)CC(C)C (centres unmarked) [1-87] |  | B or higher |  | 
26 | COC(c1ccc(NC(=O)c2c(C(F)(F)F)nn(C)c2Cl)c(C(C)CC(C)C)c1)(C(F)(F)F)C(F)(F)F (centres unmarked) [1-104] |  |  | B or higher | 
27 | CCCn1nc(C)c(C(=O)Nc2ccc(C(C(F)(F)F)C(F)(F)F)cc2C(C)CC(C)C)c1C (centres unmarked) [1-119] |  |  | B or higher | 
28 | CCc1nn(C)c(Cl)c1C(=O)Nc1ccc(C(C(F)(F)F)C(F)(F)F)cc1C(C)CC(C)C (centres unmarked) [1-132] | B or higher |  | B or higher | 
29 | CCCc1nn(C)c(Cl)c1C(=O)Nc1ccc(C(C(F)(F)F)C(F)(F)F)cc1C(C)CC(C)C (centres unmarked) [1-133] | B or higher |  |  | controlling effect (control efficacy rating, lesion area) [3]: B or higher
30 | CCCCC(C)c1cc(C(C(F)(F)F)C(F)(F)F)ccc1NC(=O)c1c(C)nn(C)c1Cl (centres unmarked) [1-143] | B or higher |  | B or higher | 
31 | CC(C)CC(C)c1cc(C(C(F)(F)F)C(F)(F)F)ccc1NC(=O)c1snnc1C(F)(F)F (centres unmarked) [3-12] | B or higher |  |  | insecticidal effect (mortality rating) [5]: B or higher
32 | Cc1coc(C)c1C(=O)Nc1ccc(C(C(F)(F)F)C(F)(F)F)cc1C(C)CC(C)C (centres unmarked) [3-13] |  | B or higher | B or higher | 
33 | CC(C)CC(C)c1cc(C(C(F)(F)F)C(F)(F)F)ccc1NC(=O)c1cscc1Br (centres unmarked) [3-21] |  |  | B or higher | 
34 | CC(C)CC(C)c1cc(C(C(F)(F)F)C(F)(F)F)ccc1NC(=O)c1cccs1 (centres unmarked) [3-27] |  | B or higher |  | 
35 | CC(C)CC(C)c1cc(C(C(F)(F)F)C(F)(F)F)ccc1NC(=O)c1sccc1Cl (centres unmarked) [3-28] |  |  |  | insecticidal effect (mortality rating) [5]: B or higher
36 | Cc1noc(C)c1C(=O)Nc1ccc(C(C(F)(F)F)C(F)(F)F)cc1C(C)CC(C)C (centres unmarked) [3-34] |  | B or higher |  | 
37 | Cc1c(Cl)c(C(=O)Nc2ccc(C(C(F)(F)F)C(F)(F)F)cc2C(C)CC(C)C)nn1C (centres unmarked) [4-1] | B or higher | B or higher |  | 
38 | Cc1cc(C(=O)Nc2ccc(C(C(F)(F)F)C(F)(F)F)cc2C(C)CC(C)C)n(C)n1 (centres unmarked) [4-3] |  |  | B or higher | controlling effect (control efficacy rating, lesion area) [3]: B or higher
39 | Cc1nn(C)c(Cl)c1C(=O)Nc1ccc(C(C(F)(F)F)C(F)(F)F)cc1C(C)CCC(C)C (centres unmarked) [Compound No. 1-146, N-{2-(1,4-dimethylpentyl)-4-[2,2,2-trifluoro-1-(trifluoromethyl)ethyl]phenyl}-5-chloro-1,3-dimethylpyrazole-4-carboxamide] | B or higher | B or higher | B or higher | 

— patent US7459477B2, “Substituted N-phenyl-phenoxy nicotinic acid-(thio)amides and their use as herbicides” (Nihon Nohyaku, Co., Ltd., priority 2001, dated 2008)
